Source: patent US20260008757A1, “N-(3-(AMINOMETHYL)-PHENYL)-5-(4-PHENYL)-5-(TRIFLUOROMETHYL)-4,5-DIHYDROISOXAZOL-3-AMINE DERIVATIVES AND SIMILAR COMPOUNDS AS PESTICIDES” (BASF SE, priority 2022, published 2026)

Columns and labels:
Type in all cases: in vivo
Spodoptera eridania = assay: Southern Armyworm (Spodoptera eridania), 2nd instar larvae, on sprayed lima bean plants, comparative experiment; details: 96 h, 4 days after treatment, read-out: mortality in comparison with untreated controls
Protocol: The active compounds were formulated by a Tecan liquid handler in 100% cyclohexanone as a 10,000-ppm solution supplied in tubes. The 10,000-ppm solution was serially diluted in 100% cyclohexanone to make interim solutions. These served as stock solutions for which final dilutions were made by the Tecan in 50% acetone:50% water (v/v) into 10 or 20 ml glass vials. A nonionic surfactant (Kinetic®) was included in the solution at a volume of 0.01% (v/v). The vials were then inserted into an automated electrostatic sprayer equipped with an atomizing nozzle for application to plants/insects. Lima bean plants (variety Sieva) were grown 2 plants to a pot and selected for treatment at the 1st true leaf stage. Test solutions were sprayed onto the foliage by an auto-mated electrostatic plant sprayer equipped with an atomizing spray nozzle. The plants were dried in the sprayer fume hood and then removed from the sprayer. Each pot was placed into perforated plastic bags with a zip closure. Ten to 11 armyworm larvae were placed into the bag and the bags zipped closed. Test plants were maintained in a growth room at about 25° C. and about 20-40% relative humidity for 4 days, avoiding direct exposure to fluorescent light (14:10 light:dark photoperiod) to prevent trapping of heat inside the bags. Mortality and reduced feeding were assessed 4 days after treatment, compared to untreated control plants.

Anthonomus grandis = assay: Boll weevil (Anthonomus grandis) egg and larval mortality, microtiter plate diet test; details: 120 h, egg and larval mortality after 5 days, read-out: mortality in comparison with untreated controls
Protocol: For evaluating control of boll weevil, the test unit consisted of 96-well-microtiter plates containing an insect diet and 5-10 A. grandis eggs.
The compounds were formulated using a solution containing 75% v/v water and 25% v/v DMSO. Different concentrations of formulated compounds were sprayed onto the insect diet at 5 μl, using a custom-built micro atomizer, at two replications.
After application, microtiter plates were incubated at about 25±1° C. and about 75±5% relative humidity for 5 days. Egg and larval mortality were then visually assessed.

Myzus persicae = assay: Green Peach Aphid (Myzus persicae), mixed life stages, systemic artificial diet test; details: 72 h, aphid mortality after 3 days, read-out: mortality in comparison with untreated controls
Text: For evaluating control of Green Peach Aphid through systemic means the test unit consisted of 96-well-microtiter plates containing liquid artificial diet under an artificial membrane. The compounds were formulated using a solution containing 75% v/v water and 25% v/v DMSO. Different concentrations of formulated compounds were pipetted into the aphid diet, using a custom-built pipette, at two replications. After application, 5-8 adult aphids were placed on the artificial membrane inside the microtiter plate wells. The aphids were then allowed to suck on the treated aphid diet and incubated at about 23±1° C. and about 50±5% relative humidity for 3 days. Aphid mortality and fecundity was then visually assessed.

[1] = system: Frankliniella occidentalis; assay: Western Flower Thrips (Frankliniella occidentalis) mortality on treated cotton leaf discs, comparative experiment; details: foliar, 48 h, thrips mortality at 2 DAT, read-out: mortality in comparison with untreated controls
Protocol: The active compounds were formulated by a Tecan liquid handler in 100% cyclohexanone as a 10,000 ppm solution supplied in tubes. The 10,000 ppm solution was serially diluted in 100% cyclohexanone to make interim solutions. These served as stock solutions for which final dilutions were made by the Tecan in 50% acetone:50% water (v/v) into 10 or 20 ml glass vials. A nonionic surfactant (Kinetic®) was included in the solution at a volume of 0.01% (v/v). The vials were then inserted into an automated electrostatic sprayer equipped with an atomizing nozzle for application to plants/insects. Small (˜2″ in height) cotton plants were sprayed with test compounds at concentrations ranging from 300 to 0.01 ppm in acetone/water through the automated VPS. After drying, cotton leaves were removed, and circular leaf discs (˜1 cm diameter) were punched from the treated surface and transferred to clean 20 mL scintillation vials. Ten Western flower thrips (FRANOC) were aspirated into each scintillation vial. The vials with the leaf discs and thrips were kept in an upright incubator at 25° C. and 50% relative humidity with a 14:10 light:dark photoperiod. Each treatment was replicated twice. Thrips mortality was assessed at 2 DAT (days after treatment), counting all thrips both dead and alive.

Heliothis virescens = assay: Tobacco Budworm (Heliothis virescens) egg and larval mortality, microtiter plate diet test; details: 120 h, egg and larval mortality after 5 days, read-out: mortality in comparison with untreated controls
Protocol: For evaluating control of Tobacco Budworm, the test unit consisted of 96-well-microtiter plates containing an insect diet and 15-25 H. virescens eggs. The compounds were formulated using a solution containing 75% v/v water and 25% v/v DMSO. Different concentrations of formulated compounds were sprayed onto the insect diet at 10 μl, using a custom-built micro atomizer, at two replications. After application, microtiter plates were incubated at about 28±1° C. and about 80±5% relative humidity for 5 days. Egg and larval mortality was then visually assessed.

Structure (SMILES)	mortality at 1 ppm (Spodoptera eridania) [%]	mortality at 800 ppm (Anthonomus grandis) [%]	mortality at 800 ppm (Myzus persicae) [%]	mortality at 100 ppm [1] [%]	mortality at 800 ppm (Heliothis virescens; 800 ppm) [%]	mortality at 2500 ppm (Heliothis virescens; 2500 ppm) [%]
O=C(NCc1cc(NC2=NOC(c3cc(Cl)cc(Cl)c3)(C(F)(F)F)C2)ccc1F)C1CC1 (centres unmarked) [I-8]	80	≥ 75	≥ 75	100	≥ 75	≥ 75
N#CC1(NC(=O)c2cc(NC3=NOC(c4cc(Cl)cc(Cl)c4)(C(F)(F)F)C3)ccc2F)CC1 (centres unmarked) [I-30 of WO2022/171472, reference compound]	0	–	–	19	–	–
